US20240002391A1, “4-ALKOXYPYRROLO[2,1-F][1,2,4]TRIAZINES AND PREPARATION AND USES THEREOF” (BioSplice Therapeutics, Inc., priority 2022, published 2024)

Target: recombinant DYRK1A kinase (Homo sapiens (Human), UniProt Q13627)
Test: DYRK1A kinase assay (Ser/Thr 18 peptide Z-lyte FRET)
Type: biochemical
Settings: DYRK1A kinase activity, Z-lyte Ser/Thr 18 peptide, 15 μM ATP; method text calls the value IC50; read-out: EC50 (the source's name)
In short: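 Z-lyte FRET read-out: coumarin (Em 455) over fluorescein (Em 520) emission ratio, converted to percent phosphorylation after 1 h development. Reaction: 0.25 μg/mL kinase, 15 μM ATP, 4 μM peptide, 1 h RT with compound, duplicate wells. IC50s fitted by non-linear regression.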

Row | Compound | IC50
1 | CCC(=O)N[C@]1(C)C[C@@H](Nc2nc(OC)c3c(-c4ccc5nnn(C)c5c4)ccn3n2)C1 [Compound 207, N-(trans-3-((4-Methoxy-5-(1-methyl-1H-benzo[d][1,2,3]triazol-6-yl)pyrrolo[2,1-f][1,2,4]triazin-2-yl)amino)-1-methylcyclobutyl)propionamide] | 1.3 nM
2 | COCC(=O)N[C@]1(C)C[C@@H](Nc2nc(OC)c3c(-c4ccc5nnn(C)c5c4)ccn3n2)C1 [Compound 208, 2-Methoxy-N-(trans-3-((4-methoxy-5-(1-methyl-1H-benzo[d][1,2,3]triazol-6-yl)pyrrolo[2,1-f][1,2,4]triazin-2-yl)amino)-1-methylcyclobutyl)acetamide] | 0.5 nM
3 | CNC(=O)[C@]1(C)C[C@H](Nc2nc(OC)c3c(-c4ccc5nnn(C)c5c4)ccn3n2)C1 [Compound 209, cis-3-((4-Methoxy-5-(1-methyl-1H-benzo[d][1,2,3]triazol-6-yl)pyrrolo[2,1-f][1,2,4]triazin-2-yl)amino)-N,1-dimethylcyclobutane-1-carboxamide] | 8.8 nM
4 | COc1nc(N[C@H]2C[C@@](C)(C(=O)N(C)C)C2)nn2ccc(-c3ccc4nnn(C)c4c3)c12 [Compound 211, cis-3-((4-Methoxy-5-(1-methyl-1H-benzo[d][1,2,3]triazol-6-yl)pyrrolo[2,1-f][1,2,4]triazin-2-yl)amino)-N,N,1-trimethylcyclobutane-1-carboxamide] | 6.6 nM
5 | COc1nc(N[C@H]2C[C@](C)(C(=O)N(C)C)C2)nn2ccc(-c3ccc4nnn(C)c4c3)c12 [Compound 212, trans-3-((4-Methoxy-5-(1-methyl-1H-benzo[d][1,2,3]triazol-6-yl)pyrrolo[2,1-f][1,2,4]triazin-2-yl)amino)-N,N,1-trimethylcyclobutane-1-carboxamide] | 1.4 nM
6 | COCCNC(=O)[C@]1(C)C[C@@H](Nc2nc(OC)c3c(-c4ccc5nnn(C)c5c4)ccn3n2)C1 [Compound 214, trans-3-((4-Methoxy-5-(1-methyl-1H-benzo[d][1,2,3]triazol-6-yl)pyrrolo[2,1-f][1,2,4]triazin-2-yl)amino)-N-(2-methoxyethyl)-1-methylcyclobutane-1-carboxamide] | 2.2 nM
7 | COc1nc(N[C@H]2C[C@@](C)(C(=O)NC3CC3)C2)nn2ccc(-c3ccc4nnn(C)c4c3)c12 [Compound 217, cis-N-Cyclopropyl-3-((4-methoxy-5-(1-methyl-1H-benzo[d][1,2,3]triazol-6-yl)pyrrolo[2,1-f][1,2,4]triazin-2-yl)amino)-1-methylcyclobutane-1-carboxamide] | 9.3 nM
8 | COc1nc(N[C@H]2C[C@](C)(C(=O)NC3CC3)C2)nn2ccc(-c3ccc4nnn(C)c4c3)c12 [Compound 218, trans-N-Cyclopropyl-3-((4-methoxy-5-(1-methyl-1H-benzo[d][1,2,3]triazol-6-yl)pyrrolo[2,1-f][1,2,4]triazin-2-yl)amino)-1-methylcyclobutane-1-carboxamide] | 2.9 nM
9 | COc1nc(N[C@H]2C[C@](C)(C(=O)N3CCCC3)C2)nn2ccc(-c3ccc4nnn(C)c4c3)c12 [Compound 222, (trans-3-((4-methoxy-5-(1-methyl-1H-benzo[d][1,2,3]triazol-6-yl)pyrrolo[2,1-f][1,2,4]triazin-2-yl)amino)-1-methylcyclobutyl)(pyrrolidin-1-yl)methanone] | 3.5 nM
10 | COc1nc(N[C@H]2C[C@](C)(N3CCCC3=O)C2)nn2ccc(-c3ccc4nnn(C)c4c3)c12 [Compound 223, 1-(trans-3-((4-methoxy-5-(1-methyl-1H-benzo[d][1,2,3]triazol-6-yl)pyrrolo[2,1-f][1,2,4]triazin-2-yl)amino)-1-methylcyclobutyl)pyrrolidin-2-one] | 1.6 nM
11 | COc1nc(N[C@H]2CC[C@@](C)(O)CC2)nn2ccc(-c3ccc4nnn(C)c4c3)c12 [Compound 224, cis-4-((4-Methoxy-5-(1-methyl-1H-benzo[d][1,2,3]triazol-6-yl)pyrrolo[2,1-f][1,2,4]triazin-2-yl)amino)-1-methylcyclohexan-1-ol] | 11.3 nM
12 | CNC(=O)[C@]1(C)CC[C@H](Nc2nc(OC)c3c(-c4ccc5nnn(C)c5c4)ccn3n2)CC1 [Compound 225, cis-4-((4-Methoxy-5-(1-methyl-1H-benzo[d][1,2,3]triazol-6-yl)pyrrolo[2,1-f][1,2,4]triazin-2-yl)amino)-N,1-dimethylcyclohexane-1-carboxamide] | 11.7 nM

Second part, the molecule after the results:

Row | IC50 | Compound
13 | 3.2 nM | CNC(=O)C12CC(Nc3nc(OC)c4c(-c5ccc6nnn(C)c6c5)ccn4n3)(C1)C2 [Compound 226, 3-((4-Methoxy-5-(1-methyl-1H-benzo[d][1,2,3]triazol-6-yl)pyrrolo[2,1-f][1,2,4]triazin-2-yl)amino)-N-methylbicyclo[1.1.1]pentane-1-carboxamide]
14 | 3.6 nM | COc1nc(NC2CC3(CCN(C(C)=O)CC3)C2)nn2ccc(-c3ccc4nnn(C)c4c3)c12 [Compound 227, 1-(2-((4-Methoxy-5-(1-methyl-1H-benzo[d][1,2,3]triazol-6-yl)pyrrolo[2,1-f][1,2,4]triazin-2-yl)amino)-7-azaspiro[3.5]nonan-7-yl)ethan-1-one]
15 | 3.4 nM | COc1nc(N[C@@H]2C[C@@H]3CN(C(C)=O)C[C@@H]3C2)nn2ccc(-c3ccc4nnn(C)c4c3)c12 [Compound 228, 1-((3aR,5r,6aS)-5-((4-Methoxy-5-(1-methyl-1H-benzo[d][1,2,3]triazol-6-yl)pyrrolo[2,1-f][1,2,4]triazin-2-yl)amino)hexahydrocyclopenta[c]pyrrol-2(1H)-yl)ethan-1-one]
16 | 1.9 nM | COc1nc(NC2CCC3(CC2)CN(C(C)=O)C3)nn2ccc(-c3ccc4nnn(C)c4c3)c12 [Compound 229, 1-(7-((4-Methoxy-5-(1-methyl-1H-benzo[d][1,2,3]triazol-6-yl)pyrrolo[2,1-f][1,2,4]triazin-2-yl)amino)-2-azaspiro[3.5]nonan-2-yl)ethan-1-one]
17 | 4.2 nM | COc1nc(NC2CCC3(CC2)COC3)nn2ccc(-c3ccc4nnn(C)c4c3)c12 [Compound 230, 4-Methoxy-5-(1-methyl-1H-benzo[d][1,2,3]triazol-6-yl)-N-(2-oxaspiro[3.5]nonan-7-yl)pyrrolo[2,1-f][1,2,4]triazin-2-amine]
18 | 7.2 nM | COc1nc(N[C@H](C)C2CC2)nn2ccc(-c3cnc4nccn4c3)c12 [Compound 231, (R)—N-(1-Cyclopropylethyl)-5-(imidazo[1,2-a]pyrimidin-6-yl)-4-methoxypyrrolo[2,1-f][1,2,4]triazin-2-amine]
19 | 6.8 nM | COc1nc(N[C@H](C)c2ccccc2)nn2ccc(-c3cnc4nccn4c3)c12 [Compound 233, (R)-5-(Imidazo[1,2-a]pyrimidin-6-yl)-4-methoxy-N-(1-phenylethyl)pyrrolo[2,1-f][1,2,4]triazin-2-amine]
20 | 0.5 nM | COc1nc(N[C@H]2C[C@@H](OC)C2)nn2ccc(-c3cnc4nccn4c3)c12 [Compound 236, 5-(Imidazo[1,2-a]pyrimidin-6-yl)-4-methoxy-N-(cis-3-methoxycyclobutyl)pyrrolo[2,1-f][1,2,4]triazin-2-amine]
21 | 2.9 nM | COc1nc(N[C@H]2CC[C@@H](C(F)(F)F)CC2)nn2ccc(-c3cnc4nccn4c3)c12 [Compound 239, 5-(Imidazo[1,2-a]pyrimidin-6-yl)-4-methoxy-N-(cis-4-(trifluoromethyl)cyclohexyl)pyrrolo[2,1-f][1,2,4]triazin-2-amine]
22 | 4.4 nM | COc1nc(N[C@H]2CC[C@H](C(C)(C)O)CC2)nn2ccc(-c3cnc4nccn4c3)c12 [Compound 242, 2-(trans-4-((5-(Imidazo[1,2-a]pyrimidin-6-yl)-4-methoxypyrrolo[2,1-f][1,2,4]triazin-2-yl)amino)cyclohexyl)propan-2-ol]
23 | 1.2 nM | COc1nc(N[C@H]2CC[C@@H](OC)CC2)nn2ccc(-c3cnc4nccn4c3)c12 [Compound 243, 5-(imidazo[1,2-a]pyrimidin-6-yl)-4-methoxy-N-(cis-4-methoxycyclohexyl)pyrrolo[2,1-f][1,2,4]triazin-2-amine]
24 | 0.7 nM | [2H]C([2H])([2H])O[C@H]1CC[C@@H](Nc2nc(OC)c3c(-c4cnc5nccn5c4)ccn3n2)CC1 [Compound 245, 5-(Imidazo[1,2-a]pyrimidin-6-yl)-4-methoxy-N-(cis-4-(methoxy-d3)cyclohexyl)pyrrolo[2,1-f][1,2,4]triazin-2-amine]
25 | 0.6 nM | COc1nc(N[C@H]2CC[C@@H](OC(F)F)CC2)nn2ccc(-c3cnc4nccn4c3)c12 [Compound 250, N-(cis-4-(Difluoromethoxy)cyclohexyl)-5-(imidazo[1,2-a]pyrimidin-6-yl)-4-methoxypyrrolo[2,1-f][1,2,4]triazin-2-amine]
26 | 2.5 nM | COc1nc(N[C@H]2CC[C@@H](OC(F)(F)F)CC2)nn2ccc(-c3cnc4nccn4c3)c12 [Compound 252, 5-(Imidazo[1,2-a]pyrimidin-6-yl)-4-methoxy-N-(cis-4-(trifluoromethoxy)cyclohexyl)pyrrolo[2,1-f][1,2,4]triazin-2-amine]
27 | 1.8 nM | COc1nc(NC2CCC(F)(F)CC2)nn2ccc(-c3cnc4nccn4c3)c12 [Compound 254, N-(4,4-Difluorocyclohexyl)-5-(imidazo[1,2-a]pyrimidin-6-yl)-4-methoxypyrrolo[2,1-f][1,2,4]triazin-2-amine]
28 | 153 nM | CN1C[C@H](F)[C@H](Nc2nc(O)c3c(-c4cnc5nccn5c4)ccn3n2)C1 [Compound 261, 2-(((3R,4S)-4-Fluoro-1-methylpyrrolidin-3-yl)amino)-5-(imidazo[1,2-a]pyrimidin-6-yl)pyrrolo[2,1-f][1,2,4]triazin-4-ol]
29 | 3.2 nM | COc1nc(N[C@@H]2CN(C)C[C@@H]2F)nn2ccc(-c3cnc4nccn4c3)c12 [Compound 262, N-((3R,4S)-4-Fluoro-1-methylpyrrolidin-3-yl)-5-(imidazo[1,2-a]pyrimidin-6-yl)-4-methoxypyrrolo[2,1-f][1,2,4]triazin-2-amine]
